From paper PMC5856881, “UGT79B31 is responsible for the final modification step of pollen-specific flavonoid biosynthesis in Petunia hybrida” (Planta, 2017)

Molecular target: T1, UGT79B31 (Petunia x hybrida, UniProt A0A2Z6FLE1)
T1 construct: full-length, cloned from petunia pollen cDNA; His/ProS2 fusion (pColdProS2) in E. coli BL21star (DE3), tag cleaved with HRV3C protease; partially purified
Assay: end-product inhibition, UPLC/PDA/QTOF/MS glucosyltransferase assay
Type: biochemical
Conditions: read-out: Relative activity (%)
From the text: end-product inhibition, UPLC/PDA/QTOF/MS glucosyltransferase assay on UGT79B31

T1 sequence (A0A2Z6FLE1 1-455): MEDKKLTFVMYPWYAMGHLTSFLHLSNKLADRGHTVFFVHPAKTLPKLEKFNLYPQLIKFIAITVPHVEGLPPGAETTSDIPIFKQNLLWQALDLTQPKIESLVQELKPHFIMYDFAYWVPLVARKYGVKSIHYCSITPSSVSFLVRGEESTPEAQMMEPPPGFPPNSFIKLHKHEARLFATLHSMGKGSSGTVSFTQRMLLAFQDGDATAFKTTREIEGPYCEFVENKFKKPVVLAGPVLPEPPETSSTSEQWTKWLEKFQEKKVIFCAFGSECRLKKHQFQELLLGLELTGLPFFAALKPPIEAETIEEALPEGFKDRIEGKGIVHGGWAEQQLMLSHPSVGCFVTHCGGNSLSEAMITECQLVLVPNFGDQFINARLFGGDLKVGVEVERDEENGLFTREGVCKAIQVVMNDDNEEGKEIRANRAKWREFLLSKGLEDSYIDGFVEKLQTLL

`O=c1ccn([C@@H]2O[C@H](COP(=O)(O)OP(=O)(O)O)[C@@H](O)[C@H]2O)c(=O)[nH]1` [UDP] gave an activity at 1000 µM of 4.2 ± 0.1%.
